From patent publication US12545637B2, “Extrahepatic targeted cationic lipid compound with high efficiency and low toxicity and its composition” (BEIJING YOUCARE KECHUANG PHARMACEUTICAL TECHNOLOGY CO., LTD., priority 2023, dated 2026) come the findings set out here.

The nature of series [1]: Particle size and polydispersity index (PDI) of lipid nanoparticles by dynamic light scattering. It counts as physicochemical. The settings on record: for PDI: LNP formulation of the cationic lipid, 25° C.; for Particle size: LNP formulation of the cationic lipid/DSPC/cholesterol/DMG-PEG2000 49:10:39.5:1.5, 25° C. The procedure:
The particle size and polydispersity index (PDI) were determined by dynamic light scattering using Malvern laser particle size analyzer.
10 μL of the liposome solution was weighed, diluted to 1 mL with RNase-free deionized water, and added to the sample pool. Each sample was measured in triplicate. The measurement conditions were: […] scattering angle, and 25° C.

Series [2] in a line: Detection of encapsulation efficiency, drug loading concentration and total RNA concentration (RiboGreen). It counts as physicochemical. As to conditions: LNP formulation prepared from the cationic lipid. An excerpt:
Encapsulation efficiency is a key quality attribute of liposomes, which refers to the percentage of drug content encapsulated in the lipid bimolecular layer accounting for the total drug dose and can reflect the degree of drug encapsulation in liposomes. The Chinese Pharmacopoeia stipulates that the encapsulation efficiency should generally not be less than 80%.
The drug loading amount is the ratio of the amount of drug in the liposome to the total amount of drug and carrier in the liposome. The drug loading amount directly affects the clinical application dose of the drug. […] The drug loading concentration is proportional to the drug loading amount, and the relative proportion of the drug loading concentrations can represent the relative proportion of the drug loading amounts. The relative ratio of the total RNA concentrations may represent the relative ratio of the amounts of mRNA carried by the LNP formulations.
1×TE buffer, 0.1% Triton X-100 buffer, RiboGreen reagent (1: 200) and mRNA standard stock solution were prepared.
An appropriate amount of the sample was added to an appropriate amount of 1×TE buffer, and the mixture was diluted to obtain a solution containing approximately […] sample per 1 mL. Then the sample was added to a 96-well plate, and 50 μL of the diluted test sample or the mRNA standard stock solution was added to each well, then 1×TE buffer and 0.1% Triton X-100 buffer were added. The sample was incubated at 37° C. for 10 minutes, and 100 μL RiboGreen reagent (1:200) was added to each well of the test sample in the 96-well plate. The sample was centrifugated, and the data were read using a microplate reader, and processed.

Series [3] deals with 293T cells. In words: Fluorescent detection of Fluc-mRNA (cell transfection efficiency of LNP formulations). It counts as cell-based. As to conditions: for Relative light unit (RLU): LNP with 0.3 μg Fluc-mRNA, 96-well plate, 24 hours. The procedure: (§1) Seeding plate: The cells in the culture dish were digested and counted. Cells were spread in a 96-well plate at 10,000 cells per well and in a 12-well plate at 150,000 cells per well. Cells were cultured overnight until the cells adhered to the wall.
The corresponding reagents were added according to the instructions of the Gaussia Luciferase Assay Kit, and the fluorescence expression intensity of each well was detected by an IVIS fluorescence detection system.

The test system of series [4] is 293T cells. In words: Cell survival rate assay (CCK-8). It counts as cell-based. As to conditions: LNP with 1.5 μg Fluc-mRNA, 24 hours, CCK-8. The procedure:
Cell recovery and passage: 293T cells were recovered, cultured in a culture dish, and passaged to the required number of cells.
as §1
An LNP formulation containing 1.5 μg of Fluc-mRNA (prepared according to example 4, the carrier components of the LNP formulation were cationic lipid, neutral lipid, structured lipid and polymer-conjugated lipid at a molar ratio of 49:10:39.5:1.5, wherein the cationic lipid was listed in Table 1) and the formulation of Lipofectamine 3000 were added to the cell culture medium of a 96-well plate, and further cultivated for 24 hours. 10 μL of CCK-8 solution was then added to each well, and the culture plate was incubated in an incubator for 1 hour. The absorbance at 450 nm was measured by a microplate reader.

Series [5] deals with female BALB/C mice. In words: In vivo imaging in mice of Fluc-mRNA LNP formulations (mRNA expression and duration). The settings on record: Fluc-mRNA LNP intramuscular; for average radiation intensity, 6 h: 6 h after administration; for average radiation intensity, 24 h: 24 h after administration; for average radiation intensity, 48 h: 48 h after administration; for average radiation intensity, 7 d: 7 d after administration. The procedure:
(§2) The LNP formulation (prepared according to Example 4) containing […] Fluc-mRNA was injected intramuscularly into female BALB/C mice aged 4-6 weeks and weighed 17-19 g, and the mice were intraperitoneally injected with fluorescent imaging substrate at specific time points after administration (6h, 24 h, 48h and 7d), where the mice were allowed to free move for 5 minutes, and then the average radiation intensity (corresponding to fluorescence expression intensity) of the protein expression of the mRNA carried by the LNP in the mice was detected by the IVIS Spectrum small animal in vivo imaging system.

The test system of series [6] is female BALB/C mice. Put plainly: Distribution of liposomes in mice (protein expression in liver, spleen, lung, heart and kidney). It counts as in vivo. How it is done:
as §2
Current mRNA vaccines usually express proteins in muscle.

Series [7] has as its system 293T cells. Put plainly: Fluorescent detection of Fluc-mRNA (cell transfection efficiency of LNP formulations). It counts as cell-based.

As to “bis(3-hexylnonyl) 8,8′-((2-hydroxyethyl) azanediyl)dioctanoate [Compound 23, reference compound]”, in series [1], the PDI is recorded as 12.1% and the Particle size was 147 nm. For the same compound, in series [2], the Drug loading concentration stood at 20.01 µg/mL, the Encapsulation efficiency was determined as 56.2% and the “Total RNA concentration” value came out at 31.05 µg/mL. Further, in series [3], the “Multiple of YK-401” value is recorded as 4.00 and the “Relative light unit (RLU)” value was 1402597 RLU. Also, in series [4], the Cell survival rate came to 69.11%. For the same compound, in series [5], the “average radiation intensity, 6 h” value worked out at 581400; the “average radiation intensity, 24 h” value amounted to 100970; the “average radiation intensity, 48 h” value is 32917; the “average radiation intensity, 7 d” value was 6105. In addition, the “protein expression in the liver” value in series [6] (mice, intramuscular Fluc-mRNA LNP, at 6h (FIG. 14)) is recorded as “had protein expression in the liver”. Further, the “Multiple of YK-402” value in series [7] (RLU of YK-402 divided by RLU of the lipid named in the row) was determined as 3.60. Besides, the “Multiple of YK-403” value in series [7] (RLU of YK-403 divided by RLU of the lipid named in the row) stood at 3.74. The “Multiple of YK-407” value in series [7] (RLU of YK-407 divided by RLU of the lipid named in the row) turned out to be 14.53. The “Multiple of YK-422” value in series [7] (RLU of YK-422 divided by RLU of the lipid named in the row) worked out at 4.59. In addition, in series [7] (RLU of YK-423 divided by RLU of the lipid named in the row), the “Multiple of YK-423” value is 4.44. The “Ratio relative to SM-102 (RLU, times that of SM-102)” value in series [7] (RLU of the lipid divided by RLU of SM-102) was determined as 0.82.
Take `CCCCCCCCCCCOC(=O)CCCCCN(CCO)CCCCCCCC(=O)OC(CCCCCCCC)CCCCCCCC` [SM-102, reference compound]: in series [1], the PDI is 22.3% and the Particle size was found to be 154 nm. Besides, in series [2], the Drug loading concentration is 26.53 µg/mL, the Encapsulation efficiency amounted to 62.9% and the “Total RNA concentration” value is 36.04 µg/mL. Also, the “Relative light unit (RLU)” value in series [3] is 1704121 RLU. Also, the Cell survival rate in series [4] stood at 67.90%. In addition, in series [5], the “average radiation intensity, 6 h” value is 691480; the “average radiation intensity, 24 h” value is 123380; the “average radiation intensity, 48 h” value was determined as 32871; the “average radiation intensity, 7 d” value was found to be 6723. Besides, in series [6] (mouse, in vivo), the “protein expression in the liver” value is “had protein expression in the liver” and the “protein expression in the spleen” value is reported as “had protein expression in the spleen”.
